Assay [1] deals with T1, Inhibitor of nuclear factor kappa-B kinase subunit epsilon (Homo sapiens) (UniProt Q14164).
T1 sequence (whole entry): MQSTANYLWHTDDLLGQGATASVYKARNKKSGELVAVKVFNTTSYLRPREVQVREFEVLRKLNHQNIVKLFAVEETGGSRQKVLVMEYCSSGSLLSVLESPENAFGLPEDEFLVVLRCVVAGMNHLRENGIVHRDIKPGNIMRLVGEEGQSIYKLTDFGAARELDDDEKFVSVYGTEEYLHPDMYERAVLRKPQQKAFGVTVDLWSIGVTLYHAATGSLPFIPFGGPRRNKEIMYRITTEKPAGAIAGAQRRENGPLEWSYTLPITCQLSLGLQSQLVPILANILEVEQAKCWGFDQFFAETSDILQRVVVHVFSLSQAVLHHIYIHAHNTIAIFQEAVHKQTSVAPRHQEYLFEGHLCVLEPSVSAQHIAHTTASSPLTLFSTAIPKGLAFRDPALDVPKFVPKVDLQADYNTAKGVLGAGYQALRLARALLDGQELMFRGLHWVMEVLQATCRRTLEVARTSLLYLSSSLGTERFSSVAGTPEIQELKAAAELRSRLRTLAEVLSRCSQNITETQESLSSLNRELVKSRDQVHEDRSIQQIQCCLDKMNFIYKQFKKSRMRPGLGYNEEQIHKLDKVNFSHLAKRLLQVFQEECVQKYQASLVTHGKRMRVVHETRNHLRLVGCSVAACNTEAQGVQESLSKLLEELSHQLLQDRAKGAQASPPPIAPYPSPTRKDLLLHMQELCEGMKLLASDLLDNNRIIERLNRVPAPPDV
The assay is described as follows: IKKi Invitrogen kinase activity assay. The settings on record: Compound concentration 1.0 uM.

Assay [2] has as its target Fibroblast growth factor receptor 1 (Homo sapiens) (UniProt P11362). The assay is described as follows: FGFR1 Invitrogen kinase activity assay. The settings on record: Compound concentration 1.0 uM.
Assay [3] has as its target Hepatocyte growth factor receptor (Homo sapiens) (UniProt P08581). The assay is described as follows: MET Invitrogen kinase activity assay. Conditions: Compound concentration 1.0 uM; call rule not given here.
Another assay deals with D(1A) dopamine receptor (Homo sapiens, UniProt P21728). The assay is described as follows: GPCRScan assay: inhibition of D1. Also on record: radioligand conc. used [nm] 0.6 – 1.3, parental cells HEKT.
D(1A) dopamine receptor, sequence (P21728 whole entry): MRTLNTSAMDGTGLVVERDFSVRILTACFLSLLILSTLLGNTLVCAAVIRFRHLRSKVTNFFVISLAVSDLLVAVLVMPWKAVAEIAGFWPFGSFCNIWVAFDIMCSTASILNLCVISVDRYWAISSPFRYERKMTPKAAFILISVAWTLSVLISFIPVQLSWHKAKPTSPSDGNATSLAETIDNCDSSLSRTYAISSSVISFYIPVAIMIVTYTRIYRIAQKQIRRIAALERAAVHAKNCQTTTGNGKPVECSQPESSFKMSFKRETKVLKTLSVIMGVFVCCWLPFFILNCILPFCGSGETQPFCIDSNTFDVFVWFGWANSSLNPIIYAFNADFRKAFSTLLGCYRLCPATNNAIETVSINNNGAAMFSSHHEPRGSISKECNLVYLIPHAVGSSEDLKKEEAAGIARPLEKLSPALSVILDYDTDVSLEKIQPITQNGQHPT
For assay [4], the target named is 3-phosphoinositide-dependent protein kinase 1 (Homo sapiens) (UniProt O15530). The assay is described as follows: PDK1 Invitrogen kinase activity assay. The settings on record: Compound concentration 1.0 uM.
3-phosphoinositide-dependent protein kinase 1 (Homo sapiens), sequence (O15530 whole entry, looked up): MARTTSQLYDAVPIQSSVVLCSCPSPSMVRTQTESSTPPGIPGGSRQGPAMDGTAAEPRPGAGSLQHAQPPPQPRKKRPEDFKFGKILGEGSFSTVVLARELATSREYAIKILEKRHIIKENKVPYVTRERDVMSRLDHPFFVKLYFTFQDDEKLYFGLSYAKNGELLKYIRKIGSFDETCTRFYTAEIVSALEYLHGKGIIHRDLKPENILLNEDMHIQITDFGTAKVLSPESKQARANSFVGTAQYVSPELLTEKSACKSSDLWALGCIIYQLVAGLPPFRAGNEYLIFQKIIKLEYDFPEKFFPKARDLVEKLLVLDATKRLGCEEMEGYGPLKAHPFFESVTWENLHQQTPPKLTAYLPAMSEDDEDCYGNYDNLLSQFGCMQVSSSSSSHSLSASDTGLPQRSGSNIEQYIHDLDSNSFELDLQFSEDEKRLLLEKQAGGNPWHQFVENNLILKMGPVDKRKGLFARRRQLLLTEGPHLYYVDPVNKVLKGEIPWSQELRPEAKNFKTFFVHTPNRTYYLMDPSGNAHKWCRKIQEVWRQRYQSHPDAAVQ
The target of a further assay is Aurora kinase A (Homo sapiens, UniProt O14965). The assay is described as follows: (§1) Aurora-A Invitrogen kinase activity assay.
Assay [5] has as its target T2, Aurora kinase A (Homo sapiens) (UniProt O14965).
T2 sequence (whole entry): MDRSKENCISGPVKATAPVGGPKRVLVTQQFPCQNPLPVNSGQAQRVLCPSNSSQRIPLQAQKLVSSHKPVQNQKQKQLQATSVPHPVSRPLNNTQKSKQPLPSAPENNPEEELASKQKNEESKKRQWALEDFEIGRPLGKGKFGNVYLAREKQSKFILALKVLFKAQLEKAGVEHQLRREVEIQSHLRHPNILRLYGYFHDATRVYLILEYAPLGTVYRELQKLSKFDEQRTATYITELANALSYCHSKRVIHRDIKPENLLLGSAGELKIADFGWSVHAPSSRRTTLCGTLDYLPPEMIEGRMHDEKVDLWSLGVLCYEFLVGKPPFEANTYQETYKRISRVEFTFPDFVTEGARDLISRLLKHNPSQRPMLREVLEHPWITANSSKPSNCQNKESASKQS
The description is as §1. The settings on record: Compound concentration 1.0 uM.

For assay [6], the target named is Tyrosine-protein kinase JAK3 (Homo sapiens, UniProt P52333). The assay is described as follows: JAK3 Invitrogen kinase activity assay.
In assay [7] the target is Serine/threonine-protein kinase Chk2 (Homo sapiens) (UniProt O96017). The assay is described as follows: CHK2 Invitrogen kinase activity assay. Conditions: Compound concentration 1.0 uM.
Serine/threonine-protein kinase Chk2 (Homo sapiens), sequence (O96017 whole entry): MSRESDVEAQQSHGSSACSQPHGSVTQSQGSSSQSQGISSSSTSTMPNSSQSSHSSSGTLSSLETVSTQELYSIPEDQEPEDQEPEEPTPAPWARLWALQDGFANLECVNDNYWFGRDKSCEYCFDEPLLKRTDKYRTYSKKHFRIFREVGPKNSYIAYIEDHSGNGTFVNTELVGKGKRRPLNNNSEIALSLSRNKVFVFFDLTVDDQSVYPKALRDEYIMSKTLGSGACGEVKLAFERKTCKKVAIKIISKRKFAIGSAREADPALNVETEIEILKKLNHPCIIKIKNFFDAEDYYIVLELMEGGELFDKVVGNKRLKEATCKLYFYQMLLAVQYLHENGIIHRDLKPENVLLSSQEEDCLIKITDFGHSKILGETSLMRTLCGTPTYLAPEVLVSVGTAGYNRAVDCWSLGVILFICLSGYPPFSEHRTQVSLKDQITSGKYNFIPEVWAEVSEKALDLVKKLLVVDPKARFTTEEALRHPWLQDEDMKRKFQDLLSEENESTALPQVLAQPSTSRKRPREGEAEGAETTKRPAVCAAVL
The target in assay [8] is T3, Serine/threonine-protein kinase TAO3 (Homo sapiens) (UniProt Q9H2K8).
T3 sequence (whole entry): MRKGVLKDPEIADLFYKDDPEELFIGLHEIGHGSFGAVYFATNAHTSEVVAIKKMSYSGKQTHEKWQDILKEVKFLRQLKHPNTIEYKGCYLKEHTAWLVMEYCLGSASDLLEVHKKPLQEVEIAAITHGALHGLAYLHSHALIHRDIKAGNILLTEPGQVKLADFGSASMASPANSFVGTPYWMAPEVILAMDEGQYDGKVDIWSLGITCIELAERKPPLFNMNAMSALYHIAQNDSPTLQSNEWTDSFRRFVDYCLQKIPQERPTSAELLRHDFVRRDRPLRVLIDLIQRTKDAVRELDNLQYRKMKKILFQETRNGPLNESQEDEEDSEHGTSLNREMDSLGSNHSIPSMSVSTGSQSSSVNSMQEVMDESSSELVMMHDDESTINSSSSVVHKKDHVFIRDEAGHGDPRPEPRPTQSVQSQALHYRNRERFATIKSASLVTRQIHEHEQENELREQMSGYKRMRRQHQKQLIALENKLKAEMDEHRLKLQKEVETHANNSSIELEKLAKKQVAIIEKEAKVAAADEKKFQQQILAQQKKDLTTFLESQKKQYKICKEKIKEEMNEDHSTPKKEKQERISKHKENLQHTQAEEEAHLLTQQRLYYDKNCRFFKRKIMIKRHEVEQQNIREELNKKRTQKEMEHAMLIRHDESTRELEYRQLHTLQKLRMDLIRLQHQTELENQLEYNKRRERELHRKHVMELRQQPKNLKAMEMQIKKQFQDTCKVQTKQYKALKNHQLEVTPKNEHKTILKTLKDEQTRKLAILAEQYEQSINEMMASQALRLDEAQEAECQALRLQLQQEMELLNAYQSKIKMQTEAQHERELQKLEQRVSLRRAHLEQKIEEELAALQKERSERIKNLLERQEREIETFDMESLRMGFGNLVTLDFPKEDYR
The assay is described as follows: TAOK3 Invitrogen kinase activity assay. The settings on record: Compound concentration 1.0 uM.

Assay [9] addresses 5-hydroxytryptamine receptor 1A (Homo sapiens) (UniProt P08908). The settings on record: Compound concentration 10.0 uM.
For assay [10], the target named is Vascular endothelial growth factor receptor 2 (Homo sapiens) (UniProt P35968). The assay is described as follows: VEGFR2/Flk1 Invitrogen kinase activity assay. Conditions: Compound concentration 1.0 uM.
Vascular endothelial growth factor receptor 2 (Homo sapiens), sequence (P35968 whole entry): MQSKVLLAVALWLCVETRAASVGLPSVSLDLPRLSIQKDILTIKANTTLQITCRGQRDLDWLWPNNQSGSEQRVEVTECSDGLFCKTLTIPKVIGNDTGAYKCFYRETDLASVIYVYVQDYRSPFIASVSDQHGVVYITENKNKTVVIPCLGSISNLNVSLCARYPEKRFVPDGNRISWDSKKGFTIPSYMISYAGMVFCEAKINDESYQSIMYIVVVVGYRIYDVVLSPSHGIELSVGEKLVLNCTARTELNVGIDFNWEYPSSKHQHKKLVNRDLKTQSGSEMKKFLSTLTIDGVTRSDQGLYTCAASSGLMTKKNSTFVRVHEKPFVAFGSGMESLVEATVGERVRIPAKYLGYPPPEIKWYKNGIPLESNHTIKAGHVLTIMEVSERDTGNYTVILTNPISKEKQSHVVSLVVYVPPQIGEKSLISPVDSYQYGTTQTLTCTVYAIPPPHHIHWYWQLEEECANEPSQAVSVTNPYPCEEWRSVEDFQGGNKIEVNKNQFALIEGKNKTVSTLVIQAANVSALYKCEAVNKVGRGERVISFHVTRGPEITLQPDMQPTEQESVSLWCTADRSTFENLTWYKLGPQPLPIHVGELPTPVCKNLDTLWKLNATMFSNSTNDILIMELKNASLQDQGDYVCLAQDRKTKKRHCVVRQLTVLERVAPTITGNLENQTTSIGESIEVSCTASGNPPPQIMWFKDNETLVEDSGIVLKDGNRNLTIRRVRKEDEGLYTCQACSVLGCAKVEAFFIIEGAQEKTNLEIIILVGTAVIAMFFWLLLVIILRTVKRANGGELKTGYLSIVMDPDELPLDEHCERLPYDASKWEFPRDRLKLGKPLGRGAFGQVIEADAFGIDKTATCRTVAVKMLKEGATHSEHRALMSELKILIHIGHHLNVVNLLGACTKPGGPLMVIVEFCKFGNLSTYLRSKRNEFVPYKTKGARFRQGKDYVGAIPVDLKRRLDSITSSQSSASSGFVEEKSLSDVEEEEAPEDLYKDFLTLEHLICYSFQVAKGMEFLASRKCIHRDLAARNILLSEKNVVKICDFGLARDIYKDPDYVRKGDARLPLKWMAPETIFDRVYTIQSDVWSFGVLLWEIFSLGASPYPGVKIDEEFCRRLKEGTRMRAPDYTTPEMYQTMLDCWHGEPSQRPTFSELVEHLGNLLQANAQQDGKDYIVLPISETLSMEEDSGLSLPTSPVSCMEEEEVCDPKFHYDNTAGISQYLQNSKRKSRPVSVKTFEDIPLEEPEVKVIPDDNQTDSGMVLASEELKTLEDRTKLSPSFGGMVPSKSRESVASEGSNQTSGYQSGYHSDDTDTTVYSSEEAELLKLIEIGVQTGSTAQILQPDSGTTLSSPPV
In assay [11] the target is 5-hydroxytryptamine receptor 1D (Homo sapiens) (UniProt P28221). The settings on record: Compound concentration 10.0 uM.
5-hydroxytryptamine receptor 1D (Homo sapiens), sequence (P28221 whole entry): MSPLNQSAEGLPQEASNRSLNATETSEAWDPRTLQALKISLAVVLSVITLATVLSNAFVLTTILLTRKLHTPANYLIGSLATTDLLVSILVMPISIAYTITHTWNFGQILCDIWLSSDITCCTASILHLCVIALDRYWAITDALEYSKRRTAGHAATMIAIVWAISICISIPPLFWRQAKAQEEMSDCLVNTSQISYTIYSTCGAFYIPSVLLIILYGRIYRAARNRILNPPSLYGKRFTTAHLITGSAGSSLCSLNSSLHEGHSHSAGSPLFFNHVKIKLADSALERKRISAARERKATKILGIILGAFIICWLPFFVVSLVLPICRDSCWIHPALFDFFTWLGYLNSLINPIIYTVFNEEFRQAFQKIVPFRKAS
The next assay has as its target Focal adhesion kinase 1 (Homo sapiens, UniProt Q05397). The assay is described as follows: Binding assay (PTK2).
Assay [12] can be described thus: GPCRScan assay: inhibition of GABA/PBR. Also on record: species or system Rattus norvegicus; radioligand conc. used [nm] 0.3 – 2.0, parental cells brain tissue.
Assay [13] addresses D(2) dopamine receptor (Homo sapiens) (UniProt P14416). Conditions: Compound concentration 10.0 uM.

D(2) dopamine receptor (Homo sapiens), sequence (P14416 whole entry): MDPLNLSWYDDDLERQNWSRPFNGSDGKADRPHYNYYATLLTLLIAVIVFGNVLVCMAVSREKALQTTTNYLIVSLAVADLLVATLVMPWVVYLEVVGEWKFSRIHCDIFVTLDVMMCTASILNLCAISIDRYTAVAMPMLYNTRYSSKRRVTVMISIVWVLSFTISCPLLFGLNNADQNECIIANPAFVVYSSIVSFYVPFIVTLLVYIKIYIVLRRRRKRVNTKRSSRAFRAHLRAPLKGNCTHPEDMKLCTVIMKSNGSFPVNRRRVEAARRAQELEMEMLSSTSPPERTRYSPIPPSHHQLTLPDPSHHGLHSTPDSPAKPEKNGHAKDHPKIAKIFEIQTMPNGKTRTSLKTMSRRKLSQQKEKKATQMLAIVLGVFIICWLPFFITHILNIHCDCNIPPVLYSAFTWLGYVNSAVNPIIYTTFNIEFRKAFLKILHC
Fibroblast growth factor receptor 1 (Homo sapiens), sequence (P11362 22-822 limits assumed): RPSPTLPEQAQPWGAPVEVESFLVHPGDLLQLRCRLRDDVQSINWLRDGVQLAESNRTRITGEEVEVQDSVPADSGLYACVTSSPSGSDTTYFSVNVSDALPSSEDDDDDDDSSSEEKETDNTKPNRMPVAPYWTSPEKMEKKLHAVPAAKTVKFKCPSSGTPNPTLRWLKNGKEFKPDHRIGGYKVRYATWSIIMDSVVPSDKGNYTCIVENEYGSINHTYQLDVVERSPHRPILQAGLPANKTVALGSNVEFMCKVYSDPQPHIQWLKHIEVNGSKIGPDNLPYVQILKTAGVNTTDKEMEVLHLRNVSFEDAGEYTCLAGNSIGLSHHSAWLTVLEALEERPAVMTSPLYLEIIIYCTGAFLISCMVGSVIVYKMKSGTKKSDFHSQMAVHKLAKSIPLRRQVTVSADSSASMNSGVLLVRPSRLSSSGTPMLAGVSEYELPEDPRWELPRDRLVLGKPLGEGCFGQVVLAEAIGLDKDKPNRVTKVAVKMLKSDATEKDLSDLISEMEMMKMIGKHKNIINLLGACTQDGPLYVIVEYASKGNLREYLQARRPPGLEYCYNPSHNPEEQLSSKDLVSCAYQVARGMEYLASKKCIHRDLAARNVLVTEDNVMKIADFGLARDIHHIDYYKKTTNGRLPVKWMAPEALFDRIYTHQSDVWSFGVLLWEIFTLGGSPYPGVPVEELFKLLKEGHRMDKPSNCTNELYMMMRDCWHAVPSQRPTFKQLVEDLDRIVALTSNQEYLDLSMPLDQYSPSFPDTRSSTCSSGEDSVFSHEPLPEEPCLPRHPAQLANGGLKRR
5-hydroxytryptamine receptor 1A (Homo sapiens), sequence (P08908 whole entry): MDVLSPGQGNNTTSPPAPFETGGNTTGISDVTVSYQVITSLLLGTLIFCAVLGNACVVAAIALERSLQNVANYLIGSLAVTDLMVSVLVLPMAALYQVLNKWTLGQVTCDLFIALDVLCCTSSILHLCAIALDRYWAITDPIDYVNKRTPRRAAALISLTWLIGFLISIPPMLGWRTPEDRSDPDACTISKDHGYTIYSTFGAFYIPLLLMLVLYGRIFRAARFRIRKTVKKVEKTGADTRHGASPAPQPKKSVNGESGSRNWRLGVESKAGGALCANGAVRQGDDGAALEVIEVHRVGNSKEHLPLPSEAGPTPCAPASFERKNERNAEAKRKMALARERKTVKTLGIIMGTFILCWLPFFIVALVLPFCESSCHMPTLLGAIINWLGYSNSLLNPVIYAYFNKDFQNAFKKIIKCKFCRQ

As to `CNC(=O)c1ccc(Nc2ncc(C(F)(F)F)c(NCc3nccnc3N(C)S(C)(=O)=O)n2)cc1` [DEFACTINIB], the inhibition – broadly, the relative decrease from the control value, in per cent – in assay [1] is 8%; in [2] it was 64%; in assay [3] it was 54%; in assay [4] it was 25%; in assay [5], 87%; in [7] it was 28%. The inhibition was 66% in assay [8], -9.76% in [9] and 68% in assay [10]. Further, at D(1A) dopamine receptor, the inhibition constant (Ki) (in general, a dissociation constant, usually derived from enzyme kinetics or from competition with a known ligand) worked out at 10 µM. Also, the half-inhibitory concentration (IC50) (as a rule, the concentration that gives 50% inhibition) was 0.135 µM on Aurora kinase A and above 1 µM in assay [6].

Regarding `CN(c1ccnc(CNc2nc(Nc3ccc4c(c3)CC(=O)N4)ncc2C(F)(F)F)n1)S(C)(=O)=O` [PF-00911705], the inhibition in assay [11] is 0.19%. Further, at Focal adhesion kinase 1, the IC50 was 0.721 µM (not active). For the same compound, in [12], the Ki was 1.48 µM and the negative-log Ki (pKi) (commonly the Ki on a negative log10 scale, so that one unit is a factor of ten) is given as 5.83. The inhibition in assay [13] is 9.12%.
